This is an account of results in patent publication US8946231B2, “P2X3, receptor antagonists for treatment of pain” (Merck Sharp & Dohme Corp., priority 2009, dated 2015).

For this assay, the target named is T1, human P2X3 (Homo sapiens, UniProt P56373).
T1 construct: expressed in transfected cells
T1 sequence (P56373 1-397): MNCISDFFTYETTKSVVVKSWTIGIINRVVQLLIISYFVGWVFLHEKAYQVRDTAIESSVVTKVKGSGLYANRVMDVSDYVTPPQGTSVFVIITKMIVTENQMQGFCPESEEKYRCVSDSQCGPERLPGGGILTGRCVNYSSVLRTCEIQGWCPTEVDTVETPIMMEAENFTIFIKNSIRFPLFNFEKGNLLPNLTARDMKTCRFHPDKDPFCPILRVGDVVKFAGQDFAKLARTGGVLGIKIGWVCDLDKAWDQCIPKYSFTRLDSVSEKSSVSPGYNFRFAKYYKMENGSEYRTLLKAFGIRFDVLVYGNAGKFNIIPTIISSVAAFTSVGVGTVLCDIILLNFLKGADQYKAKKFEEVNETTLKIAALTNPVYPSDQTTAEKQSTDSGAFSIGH
The experiment in a line: Intracellular Calcium Measurement to Assess Antagonist Affinity (FLIPR, Fluo-4). The class given is cell-based. The note with it: cells expressing human P2X3; agonist α,β-meATP at EC50; antagonist added 10 min before agonist. An excerpt:
Generation of a Human P2X3 and P2X2/3 Stable Cell Line—Human P2X3 receptor cDNA (Accession number NM_002559) was subcloned as a 5′XhoI and 3′HindIII fragment into the expression vector pcDNA5/FRT (Invitrogen). Human P2X2 receptor cDNA (Accession number NM_174873) was subcloned as a 5′EcoRI and 3′NotI fragment into the expression vector pIRESneo2 (BD Biosciences Clontech). The human P2X3 expression construct was transfected using Lipofectamine 2000 (Invitrogen) into Ftp-in—293 cells (Invitrogen) according to the manufacturer's directions. Cells positive for flp-mediated recombination of […] P2X3 were selected using 150 μg/ml hygromycin. The stable human P2X3 cell line was co-transfected with the human P2X2 expression construct using Lipofectamine 2000 as above and co-transfected cells selected using […] hygromycin and 1 mg/ml G418. The stable P2X3 cell line was propagated in DMEM, 10% FBS, 100 μg/ml hygromycin, and 100 units/ml penicillin and 100 μg/ml streptomycin, and maintained at 37° and 95% humidity. The stable P2X213 cell line was propagated as above with the addition of 500 μg/ml G418.
Intracellular Calcium Measurement to Assess Antagonist Affinity—A fluorescent imaging plate reader (FLIPR; Molecular Devices) was used to monitor intracellular calcium levels using the calcium-chelating dye Fluo-4 (Molecular Probes). The excitation and emission wavelengths used to monitor fluorescence were 488 nm and 530 nm, respectively. Cells expressing either human P2X3 or human P2X2/3 were plated at a density of 20,000 cells/well (20 μl/well) in 384-well black-walled plates approximately 20 hours before beginning the assay. […] During this period fluorescence data is collected at 3 sec intervals followed by 10 sec intervals. […] Following agonist addition fluorescence was measured at 5 sec intervals and analyzed based on the increase in peak relative fluorescence units (RFU) compared to the basal fluorescence. Peak fluorescence was used to determine the inhibitory effect at each concentration of antagonist by the following equation: % Inhibition=100*(1−((RFU(drug)−RFU(control)/(RFU(DMSO only)−RFU(control)))) In vitro Electrophysiological Assay—Cells expressing human P2X3 receptors were grown to a confluence of 65-85% 20 to 32 hours prior to assay. The cells were dissociated with trypsin, centrifuged, and resuspended in bath solution at a cell density of 1×10^6 cells/ml and loaded onto PatchXpress. The bath solution contained 150 mM NaCl, 4 mM KCl, 2 mM CaCl2, 1.2 mM MgCl2, 10 mM HEPES, and 11.1 mM glucose, at pH 7.2. […]

With `C[C@@H](NC(=O)c1cn(-c2ccc(F)cn2)nc1-c1ccccc1)c1ccc(C(F)(F)F)[n+]([O-])c1` [Example 1.74, 1-(5-Fluoropyridin-2-yl)-N-{(1R)-1-[1-oxido-6-(trifluoromethyl)pyridin-3-yl]ethyl}-3-phenyl-1H-pyrazole-4-carboxamide], the half-maximal inhibitory concentration (IC50) stood at 53 nM.

In the case of `C[C@@H](NC(=O)c1cn(-c2ccc(F)cn2)nc1-c1cnoc1)c1ccc(C(F)(F)F)[n+]([O-])c1` [Example 1.103], the IC50 turned out to be 125 nM.

As for `CC(C)Cc1nn(-c2ccc(F)cn2)cc1C(=O)N[C@H](C)c1ccc(C(F)(F)F)[n+]([O-])c1` [Example 1.109], the half-maximal inhibitory concentration (IC50) was 34 nM.

As to `Cc1ccc(-c2nc(-c3ccccc3)c(C(=O)N[C@H](C)c3ccc(C(F)(F)F)[n+]([O-])c3)o2)nc1` [Example 2.5], the IC50 stood at 84 nM.
